Experiments:
[1] = system: cold allodynia in rats with chronic constriction injury (CCI) of the sciatic nerve; assay: Acetone test (cold allodynia) in rats with chronic constriction injury of the sciatic nerve (Bennett and Xie model); format: in vivo, Male Wistar rats; details: for anti-allodynic effect: oral, temporal course 0-180 min; for dose dependence of anti-allodynic effects: given orally, alone; for Anti-allodynic efficacy: Maximal efficacy (AUC: X ± SE): most efficacious dose po: Pregabalin 31.6 mg/Kg, S-ketorolac 1.0 mg/Kg, AUC of 180-min temporal course, maximum possible 300 au, n=6; for maximal anti-allodynic effect (AUC): pregabalin 31.6 mg/Kg po, S-Ket 1.0 mg/Kg po, 180-min temporal course; for Anti-allodynic efficacy: Relative efficacy: relative to pregabalin, Pregabalin 31.6 mg/Kg po, S-ketorolac 1.0 mg/Kg po
Protocol: (§1) Male Wistar rats were used in the experiments. […] The animals were kept in polycarbonate cages under controlled temperature and light conditions, with 12-hour light/darkness cycles and free access to food and water. All experiments were performed during the light phase of the light/darkness cycles. The animals were used and handled according to the international guidelines on Ethical Standards for Investigations of Experimental Pain established by the Committee for Research and Ethical Issues of the International Association for the Study of Pain. The number of experiment animals was kept to a minimum (n=6), and at the end of the experimental assessments the animals were sacrificed using carbon dioxide.
(§2) Immediately after the rats were anesthetized, their right hind limb sciatic nerves were dissected through an incision, in which the biceps femoris muscle was dissected for locating the most proximal site to the trifurcation of the sciatic nerve, and to apply four loose ligations with silk thread.
(§3) Once the surgery was finished, the muscle was sutured with absorbable thread, and the skin was sutured with silk thread. Sham surgery in rats was performed likewise, although without ligating the sciatic nerve. All procedures were performed under aseptic conditions. The degree of hyperalgesia and allodynia in rats subjected to sciatic nerve surgery was determined using the Von Frey test (mechanical hyperalgesia) and the acetone test (cold allodynia).
The acetone test (cold allodynia) was performed and assessed as follows: Once the Von Frey test was finished, rats were left to rest over the metallic mesh, and after a 5-10 minute period, 0.1 mL of acetone was applied on the sole callosities of the right hindlimb with a syringe with a flexible plastic point from under the mesh. Then, a chronometer recorded the time in seconds in which the animals kept the hindlimb away from the mesh during the first 60 seconds after being exposed to acetone. The response time of the right hindlimb was measured. Three measurements were made (1 measurement every 2 minutes).
(§4) In a first stage, the experimental design of the groups and the experiments were performed as follows: • a) Several groups of 6 animals with neuropathic pain (sciatic nerve ligation) were formed.
All combinations to be assessed were designed. It was decided to evaluate combinations with 24 different proportions, to have the fullest possible notion of the interaction of these 2 analgesics, and for obtaining and determining the optimal combinations in terms of efficacy and anti-allodynic potentiation.

[2] = system: mechanical hyperalgesia in rats with chronic constriction injury (CCI) of the sciatic nerve; assay: Von Frey test (mechanical hyperalgesia, 15-gram filament) in rats with chronic constriction injury of the sciatic nerve; format: in vivo, Male Wistar rats; details: for dose dependence of anti-hyperalgesic effects: given orally, alone; for Antihyperalgesic efficacy: Maximal efficacy (AUC: X ± SE): most efficacious dose po: Pregabalin 31.6 mg/Kg, S-ketorolac 3.16 mg/Kg, AUC of 180-min temporal course, n=6; for maximal antihyperalgesic effect (AUC): pregabalin 31.6 mg/Kg po, S-Ket 3.16 mg/Kg po; for Antihyperalgesic efficacy: Relative efficacy: relative to pregabalin, Pregabalin 31.6 mg/Kg po, S-ketorolac 3.16 mg/Kg po
Protocol: as §1, §2, §3
Von Frey test (mechanic hyperalgesia). Rats were placed over a metallic mesh in a clear acrylic box and remained in the box at least 10 minutes before the test, in order to allow the rats to adapt to the environment. The response was determined by means of a tactile stimulus on the sole callosities of the right hindlimb with the 15-gram Von Frey filament. Ten stimuli were applied (one stimulus approximately every 3 seconds), and the response percentage was obtained (% response=number of responses/10 ×100).
as §4
It was decided to base assessments on 6 doses of the pregabalin DRCs (0.0316, 0.1, 0.316, 1.0, 3.16 and 10 mg/Kg) and to combine them with 4 different S-ketorolac doses (0.0316, 0.10, 0.316 and 1.0 mg/Kg p.o.).

[3] = pregabalin 10.0 mg/Kg po alone, reached 3 h after administration

Structure (SMILES)	anti-allodynic effect ([1]; 0.0316 mg/Kg dose)	anti-allodynic effect ([1]; 31.6 mg/Kg dose)	dose dependence of anti-allodynic effects [1]	Anti-allodynic efficacy: Maximal efficacy (AUC: X ± SE) [1]	anti-allodynic Emax [1, 3]	maximal anti-allodynic effect (AUC) [1]	Anti-allodynic efficacy: Relative efficacy [1]	dose dependence of anti-hyperalgesic effects [2]	more anti-hyperalgesia than S-ketorolac ([2]; most effective oral doses given alone)	Antihyperalgesic efficacy: Maximal efficacy (AUC: X ± SE) [2]	antihyperalgesic effect ([2]; pregabalin 0.316 mg/Kg po alone, over the assessment period)	antihyperalgesic Emax [2, 3]	maximal antihyperalgesic effect (AUC) [2]	Antihyperalgesic efficacy: Relative efficacy [2]	anti-allodynic effect ([1]; 1.0 mg/Kg dose)	anti-allodynic Emax ([1]; S-ketorolac 0.316 mg/Kg po alone, reached 30 minutes after administration)	anti-allodynic efficacy as percent of that induced by oral pregabalin ([1]; S-ketorolac 1.0 mg/Kg po vs pregabalin 31.6 mg/Kg po)	antihyperalgesic effect ([2]; S-ketorolac 1.0 mg/Kg po alone)	antihyperalgesic Emax ([2]; S-ketorolac 1.0 mg/Kg po alone, reached 60 minutes after administration)	antihyperalgesic efficacy as percent of that delivered by pregabalin ([2]; S-ketorolac 3.16 mg/Kg po vs pregabalin 31.6 mg/Kg po)
CC(C)C[C@H](CN)CC(=O)O [Pregabalin, (3S)-3-(aminomethyl)-5-methylhexanoic acid]	almost no anti-allodynic effect	significant anti-allodynic effect	dose-dependent anti-allodynic effects	241.6 ± 9.5	83.4±3.7%	241.6±9.5 ua	1.0	dose-dependent anti-hyperalgesic effects	49%	220.4 ± 12.3	practically no antihyperalgesic effects	78.3±5.4%	220.4±12.3 ua	1.0						
O=C(c1ccccc1)c1ccc2n1CCC2C(=O)O (centres unmarked) [S-ketorolac, 5-Benzoyl-2,3-dihydro-1H-pyrrolizine-1-carboxylic acid]	almost no anti-allodynic effect		dose-dependent anti-allodynic effects	111.2 ± 20.3		111.2±20.3 ua	0.46	dose-dependent anti-hyperalgesic effects		112.5 ± 3.5			112.5±3.5 ua	0.51	significant anti-allodynic effect	44.0±7.7%	46%	little antihyperalgesic effect	40.0±5.8%	51%
